Experimental data as given in ChEMBL document CHEMBL5705898 (Proc Natl Acad Sci U S A, 2014).

Key:
[1] = Permeability of compound in MDCKII-LE cells; type: ADME, cell-based, Canis lupus familiaris; conditions: dog, MDCK; read-out: permeability
[2] = tested on: MDA-MB-231; test: Cytotoxicity against human MDA-MB-231 cells assessed as reduction in cell viability at <50 uM by alamar blue assay; type: toxicity, cell-based; conditions: mda-mb-231, 50 µM
[3] = target: Adenosine receptor A2a (Homo sapiens) (UniProt P29274); test: Inhibition of human A2A receptor at 10 uM relative to control
Adenosine receptor A2a (Homo sapiens), sequence (P29274 whole entry): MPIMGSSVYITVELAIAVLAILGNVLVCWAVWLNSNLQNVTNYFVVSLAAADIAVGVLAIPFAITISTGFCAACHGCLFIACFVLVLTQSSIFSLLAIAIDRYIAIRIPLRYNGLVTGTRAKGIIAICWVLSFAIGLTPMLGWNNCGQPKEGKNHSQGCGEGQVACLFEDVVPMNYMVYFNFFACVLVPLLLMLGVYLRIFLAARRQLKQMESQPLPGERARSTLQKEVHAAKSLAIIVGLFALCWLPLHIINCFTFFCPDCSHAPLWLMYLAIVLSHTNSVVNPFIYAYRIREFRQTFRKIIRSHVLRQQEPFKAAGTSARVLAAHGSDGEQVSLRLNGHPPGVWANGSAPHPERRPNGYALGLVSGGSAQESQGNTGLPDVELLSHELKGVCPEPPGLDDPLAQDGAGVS

[4] = target: Beta-2 adrenergic receptor (Homo sapiens) (UniProt P07550); test: Inhibition of human beta 2 receptor at 10 uM relative to control
[5] = target: B2 bradykinin receptor (Homo sapiens) (UniProt P30411); test: Inhibition of human B2 receptor at 10 uM relative to control
B2 bradykinin receptor (Homo sapiens), sequence (P30411 whole entry): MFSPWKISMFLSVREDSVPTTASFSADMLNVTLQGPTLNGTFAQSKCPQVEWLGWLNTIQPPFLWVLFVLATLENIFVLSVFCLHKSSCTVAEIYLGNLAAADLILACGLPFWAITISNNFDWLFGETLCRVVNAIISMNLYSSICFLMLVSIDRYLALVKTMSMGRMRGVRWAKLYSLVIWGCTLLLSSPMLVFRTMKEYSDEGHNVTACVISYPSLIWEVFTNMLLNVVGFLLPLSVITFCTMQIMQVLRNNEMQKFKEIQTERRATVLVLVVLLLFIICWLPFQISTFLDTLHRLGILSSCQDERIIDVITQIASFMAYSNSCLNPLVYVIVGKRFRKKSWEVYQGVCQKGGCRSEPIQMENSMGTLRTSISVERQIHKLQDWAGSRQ

[6] = target: D(2) dopamine receptor (Homo sapiens) (UniProt P14416); test: Inhibition of human D2S receptor at 10 uM relative to control
[7] = target: Gamma-aminobutyric acid receptor subunit beta-1 (Homo sapiens) (UniProt P18505); test: Inhibition of human GABA beta 1b at 10 uM relative to control
Gamma-aminobutyric acid receptor subunit beta-1 (Homo sapiens), sequence (P18505 whole entry): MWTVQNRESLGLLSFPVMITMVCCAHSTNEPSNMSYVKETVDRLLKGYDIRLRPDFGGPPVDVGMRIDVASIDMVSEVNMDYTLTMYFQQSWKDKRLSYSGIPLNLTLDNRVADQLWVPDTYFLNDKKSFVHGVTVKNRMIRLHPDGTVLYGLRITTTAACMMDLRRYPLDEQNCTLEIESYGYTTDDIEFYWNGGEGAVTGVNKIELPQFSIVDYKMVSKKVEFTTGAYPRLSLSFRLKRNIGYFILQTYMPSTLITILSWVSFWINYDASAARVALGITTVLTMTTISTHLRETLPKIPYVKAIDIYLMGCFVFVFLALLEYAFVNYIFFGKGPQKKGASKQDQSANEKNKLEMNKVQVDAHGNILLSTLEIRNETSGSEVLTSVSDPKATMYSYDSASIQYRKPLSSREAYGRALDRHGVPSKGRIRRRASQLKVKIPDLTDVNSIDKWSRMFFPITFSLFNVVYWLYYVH

[8] = organism: Homo sapiens; test: Inhibition of human TNF-alpha at 10 uM relative to control
[9] = target: Histamine H1 receptor (Homo sapiens) (UniProt P35367); test: Inhibition of human H1 receptor at 10 uM relative to control
[10] = target: Melanin-concentrating hormone receptor 1 (Homo sapiens) (UniProt Q99705); test: Inhibition of human MCH1 receptor at 10 uM relative to control
[11] = target: Melanocortin receptor 3 (Homo sapiens) (UniProt P41968); test: Inhibition of human MC3 receptor at 10 uM relative to control
Melanocortin receptor 3 (Homo sapiens), sequence (P41968 whole entry): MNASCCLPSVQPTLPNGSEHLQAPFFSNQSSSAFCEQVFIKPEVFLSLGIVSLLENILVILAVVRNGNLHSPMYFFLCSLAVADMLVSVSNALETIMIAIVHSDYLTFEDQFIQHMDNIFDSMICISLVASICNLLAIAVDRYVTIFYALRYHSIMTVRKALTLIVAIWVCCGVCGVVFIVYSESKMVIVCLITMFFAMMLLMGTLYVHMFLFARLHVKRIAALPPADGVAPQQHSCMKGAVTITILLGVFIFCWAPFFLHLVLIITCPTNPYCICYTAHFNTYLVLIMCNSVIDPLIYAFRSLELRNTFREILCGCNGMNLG

[12] = target: MAO-A (Amine oxidase [flavin-containing] A) (Homo sapiens, UniProt P21397); test: Inhibition of MAO-A (unknown origin) at 10 uM relative to control
MAO-A (Amine oxidase [flavin-containing] A), sequence (P21397 whole entry): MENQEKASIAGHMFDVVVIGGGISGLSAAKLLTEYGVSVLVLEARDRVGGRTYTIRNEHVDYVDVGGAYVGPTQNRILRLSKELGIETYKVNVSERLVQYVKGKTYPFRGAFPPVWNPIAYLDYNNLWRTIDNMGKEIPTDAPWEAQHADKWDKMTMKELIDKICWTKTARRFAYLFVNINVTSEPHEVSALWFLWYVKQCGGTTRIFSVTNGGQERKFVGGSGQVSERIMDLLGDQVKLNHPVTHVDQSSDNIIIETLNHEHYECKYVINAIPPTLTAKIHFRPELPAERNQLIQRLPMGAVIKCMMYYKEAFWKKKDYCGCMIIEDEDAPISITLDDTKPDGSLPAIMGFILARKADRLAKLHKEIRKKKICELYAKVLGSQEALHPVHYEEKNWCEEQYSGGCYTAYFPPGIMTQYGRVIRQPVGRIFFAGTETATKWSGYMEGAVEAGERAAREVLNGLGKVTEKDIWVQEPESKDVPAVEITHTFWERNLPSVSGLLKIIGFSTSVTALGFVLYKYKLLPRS

[13] = target: Muscarinic acetylcholine receptor M3 (Homo sapiens) (UniProt P20309); test: Inhibition of human M3 receptor at 10 uM relative to control
Muscarinic acetylcholine receptor M3 (Homo sapiens), sequence (P20309 whole entry, looked up): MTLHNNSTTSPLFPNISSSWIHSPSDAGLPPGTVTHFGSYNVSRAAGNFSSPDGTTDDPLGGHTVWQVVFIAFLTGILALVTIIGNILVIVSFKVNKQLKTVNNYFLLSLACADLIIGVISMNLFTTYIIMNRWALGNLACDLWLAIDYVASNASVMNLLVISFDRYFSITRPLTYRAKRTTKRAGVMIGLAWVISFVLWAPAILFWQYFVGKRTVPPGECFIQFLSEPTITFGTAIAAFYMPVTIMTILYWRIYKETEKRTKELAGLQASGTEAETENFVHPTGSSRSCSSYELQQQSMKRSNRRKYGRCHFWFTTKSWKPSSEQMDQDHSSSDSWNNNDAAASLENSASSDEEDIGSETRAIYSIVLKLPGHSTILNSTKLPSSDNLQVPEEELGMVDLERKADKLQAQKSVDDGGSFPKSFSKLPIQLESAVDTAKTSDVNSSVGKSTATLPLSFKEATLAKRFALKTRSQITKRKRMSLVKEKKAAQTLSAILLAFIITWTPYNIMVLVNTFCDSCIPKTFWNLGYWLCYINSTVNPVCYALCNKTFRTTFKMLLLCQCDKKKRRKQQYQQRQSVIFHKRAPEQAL

[14] = target: Delta-type opioid receptor (Homo sapiens) (UniProt P41143); test: Inhibition of human delta 2 opioid receptor at 10 uM relative to control
Delta-type opioid receptor (Homo sapiens), sequence (P41143 whole entry): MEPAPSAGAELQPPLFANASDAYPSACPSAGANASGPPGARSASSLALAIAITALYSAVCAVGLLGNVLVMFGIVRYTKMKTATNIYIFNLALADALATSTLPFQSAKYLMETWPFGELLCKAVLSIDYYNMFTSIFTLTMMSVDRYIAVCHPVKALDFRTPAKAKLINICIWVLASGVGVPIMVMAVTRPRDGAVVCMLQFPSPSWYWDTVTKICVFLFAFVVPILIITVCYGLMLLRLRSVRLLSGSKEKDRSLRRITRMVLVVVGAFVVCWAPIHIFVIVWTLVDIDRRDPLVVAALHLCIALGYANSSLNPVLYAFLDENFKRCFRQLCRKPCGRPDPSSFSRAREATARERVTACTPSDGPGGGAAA

[15] = target: Peroxisome proliferator-activated receptor gamma (Homo sapiens) (UniProt P37231); test: Inhibition of human PPARgamma at 10 uM relative to control
[16] = target: Prostaglandin E2 receptor EP2 subtype (Homo sapiens) (UniProt P43116); test: Inhibition of human EP2 receptor at 10 uM relative to control
[17] = target: 5-hydroxytryptamine receptor 1D (Homo sapiens) (UniProt P28221); test: Inhibition of 5-HT1D receptor (unknown origin) at 10 uM relative to control
[18] = organism: Homo sapiens; test: Inhibition of Ca2+ channel L, dihydropyridine site (unknown origin) at 10 uM relative to control
[19] = target: Angiotensin-converting enzyme (Homo sapiens) (UniProt P12821); test: Inhibition of human ACE at 10 uM relative to control
Angiotensin-converting enzyme (Homo sapiens), sequence (P12821 whole entry): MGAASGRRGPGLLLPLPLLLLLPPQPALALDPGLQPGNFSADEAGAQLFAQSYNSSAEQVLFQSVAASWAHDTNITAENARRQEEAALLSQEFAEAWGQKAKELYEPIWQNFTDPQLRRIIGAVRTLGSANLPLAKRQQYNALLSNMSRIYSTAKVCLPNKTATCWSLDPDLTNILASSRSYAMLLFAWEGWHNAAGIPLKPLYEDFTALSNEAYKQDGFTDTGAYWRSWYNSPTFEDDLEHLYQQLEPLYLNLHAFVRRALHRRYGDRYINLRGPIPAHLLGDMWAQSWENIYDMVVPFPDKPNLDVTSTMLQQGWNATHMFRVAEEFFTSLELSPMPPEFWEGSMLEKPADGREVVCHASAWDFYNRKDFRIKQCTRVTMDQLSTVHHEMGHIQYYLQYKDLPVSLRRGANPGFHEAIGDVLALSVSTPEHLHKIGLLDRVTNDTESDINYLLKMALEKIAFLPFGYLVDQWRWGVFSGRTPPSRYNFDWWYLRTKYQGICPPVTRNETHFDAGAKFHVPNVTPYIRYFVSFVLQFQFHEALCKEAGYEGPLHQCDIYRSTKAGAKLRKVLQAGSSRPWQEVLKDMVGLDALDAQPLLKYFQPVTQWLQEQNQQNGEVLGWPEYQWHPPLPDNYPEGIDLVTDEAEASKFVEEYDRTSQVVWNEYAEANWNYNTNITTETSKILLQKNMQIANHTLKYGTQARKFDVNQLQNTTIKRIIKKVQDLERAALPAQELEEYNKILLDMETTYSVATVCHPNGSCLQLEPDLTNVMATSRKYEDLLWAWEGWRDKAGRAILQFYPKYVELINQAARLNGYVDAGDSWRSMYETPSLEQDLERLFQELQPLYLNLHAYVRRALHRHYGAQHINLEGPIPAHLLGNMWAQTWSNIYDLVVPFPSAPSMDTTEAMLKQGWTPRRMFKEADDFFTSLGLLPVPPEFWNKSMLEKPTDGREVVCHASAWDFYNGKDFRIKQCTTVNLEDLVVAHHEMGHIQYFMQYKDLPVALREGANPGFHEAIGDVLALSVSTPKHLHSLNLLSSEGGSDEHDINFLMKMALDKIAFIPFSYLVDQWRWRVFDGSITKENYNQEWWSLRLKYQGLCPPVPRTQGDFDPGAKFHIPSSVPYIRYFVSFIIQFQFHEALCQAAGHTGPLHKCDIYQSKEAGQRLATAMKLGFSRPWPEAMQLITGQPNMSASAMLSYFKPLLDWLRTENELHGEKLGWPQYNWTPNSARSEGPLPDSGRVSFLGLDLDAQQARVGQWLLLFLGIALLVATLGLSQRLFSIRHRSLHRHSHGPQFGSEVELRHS

[20] = target: Beta-secretase 1 (Homo sapiens) (UniProt P56817); test: Inhibition of human BACE-1 at 10 uM relative to control
[21] = target: Human immunodeficiency virus type 1 protease (Human immunodeficiency virus 1) (UniProt Q72874); test: Inhibition of HIV-1 protease at 10 uM relative to control
[22] = target: 72 kDa type IV collagenase (Homo sapiens) (UniProt P08253); test: Inhibition of human MMP-2 at 10 uM relative to control
[23] = target: Tyrosine-protein kinase Fyn (Homo sapiens) (UniProt P06241); test: Inhibition of human Fyn kinase at 10 uM relative to control
Tyrosine-protein kinase Fyn (Homo sapiens), sequence (P06241 2-537 limits assumed): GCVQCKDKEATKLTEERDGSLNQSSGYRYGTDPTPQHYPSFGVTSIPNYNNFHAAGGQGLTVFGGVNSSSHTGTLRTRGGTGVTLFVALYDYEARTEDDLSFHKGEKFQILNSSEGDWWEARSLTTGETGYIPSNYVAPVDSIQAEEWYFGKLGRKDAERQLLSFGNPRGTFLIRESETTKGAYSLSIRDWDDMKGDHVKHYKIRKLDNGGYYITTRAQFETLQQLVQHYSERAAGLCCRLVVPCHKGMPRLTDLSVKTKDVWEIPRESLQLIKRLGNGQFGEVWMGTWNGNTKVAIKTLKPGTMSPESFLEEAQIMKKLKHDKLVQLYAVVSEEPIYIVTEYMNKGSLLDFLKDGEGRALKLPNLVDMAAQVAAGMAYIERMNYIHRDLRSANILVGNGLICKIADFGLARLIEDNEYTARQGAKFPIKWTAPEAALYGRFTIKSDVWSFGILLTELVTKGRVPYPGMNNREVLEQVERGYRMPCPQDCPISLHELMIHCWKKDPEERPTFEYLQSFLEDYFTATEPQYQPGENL

[24] = Inhibition of Ca2+ channel L, diltiazem site (unknown origin); design: species or system Homo sapiens

O=C([C@@H](Cc1cccc(C(F)(F)F)c1)NS(=O)(=O)c1cc(F)c2c(c1)CCNC2)N1CCCC1
Papp [1]: 6.48 ×10⁻⁶ cm/s | Activity [2]: Non-Toxic | inhibition [3]: 18% | inhibition [4]: -4% | inhibition [5]: 0% | inhibition [6]: 39% | inhibition [7]: 5% | inhibition [8]: -4% | inhibition [9]: 10% | inhibition [10]: -1% | inhibition [11]: 7% | inhibition at 10 µM [12]: 6% | inhibition [13]: 37% | inhibition [14]: 47% | inhibition [15]: 7% | inhibition [16]: -1% | inhibition [17]: 10% | inhibition [18]: -10% | inhibition [19]: -4% | inhibition [20]: 3% | inhibition [21]: -4% | inhibition [22]: 15% | inhibition [23]: 1% | IC50 [24]: 14 µM
